Data from patent US20050222130A1, “Inhibitors of RhoA kinase production/activation for relaxing the features of and/or for decontracting the skin” (L'OREAL, priority 2004, published 2005).

Tested on: dermal equivalent comprising a collagen matrix seeded with normal human fibroblasts
Experiment: Spontaneous contraction of attached dermal equivalent (dermo-decontracting effect)
Format: cell-based
Settings: for inhibition of contraction of the dermal equivalent (in words): different concentrations
Description: The principle of this test entails studying the dermo-decontracting effect of (R)(+)-trans-N-(4-pyridyl)-4-(1-aminoethyl)cyclohexanecarboxamide dihydrochloride (Y-27632) on a model of dermal equivalent comprising a collagen matrix seeded with normal human fibroblasts. These conditions are intended to mimic in vitro the dermal contractile phenomena that take place during facial expressions. Under these conditions, specifically, the cells spontaneously express tensile forces that induce a retraction of the collagen gel. […] Measurement of this area makes it possible to evaluate the relaxation effects of substances placed in contact beforehand with the dermal equivalent. Four series of 3 attached dermal equivalents containing normal human fibroblasts are prepared: a control series without any treatment, and three series treated with (R)(+)-trans-N-(4-pyridyl)-4-(1-aminoethyl)cyclohexanecarboxamide dihydrochloride at different concentrations. The experiment is repeated three times. The dermal equivalents are prepared as described in Asselineau et al., Exp. Cell. Res. 1985, 159, 536-539; Models in Dermatology, 1987, Vol. 33, pp. 1-7, in the following proportions: [table] The treated dermal equivalent differs from the control dermal equivalent in that variable amounts of (R)(+)-trans-N-(4-pyridyl)-4-(1-aminoethyl)cyclohexanecarboxamide dihydrochloride are added thereto. The collagen used is type I collagen (commercial solution), but a collagen of type III or IV may also be used. It is extracted from rat tails or from calf skin by acidic hydrolysis and stored in acidic medium at +4° C.; it naturally polymerizes on heating to 37° C. and on reducing the level of acidity. The collagen is predialyzed against successive baths of water+acetic acid. The protocol is as follows: 1.76×MEM medium in the presence of additives (1% glutamine, 1% nonessential amino acids, 1% sodium pyruvate, 1% fungizone and 1% penicillin/streptomycin), foetal calf serum and 0.1 N NaOH are introduced into a sterile flask tube. The fibroblasts isolated from human skin explants are then added at a concentration of 1.4×10^5 cells per 1 ml of culture medium. A volume/volume mixture of collagen in acetic acid to 1/1000 is then added slowly, against the wall of the tube so as to observe the appearance of a whitish cloud. The whole is then mixed cautiously and distributed in the wells of a 12-well culture plate (of the type Costar reference 3512) at a rate of 0.5 ml of mixture per cm^2. The culture plate is then placed in an incubator at 37° C. with 5% CO2. Once formed after polymerization of the collagen, the dermal equivalents are left adhering to the culture support for 3 days and then detached from the support in order for the contraction to be able to start. These attached dermal equivalents are removed from the incubator for the taking of the images to measure their surface area, for each point of the contraction kinetics (0, 4, 8 and 24 hours). They are immediately returned to the incubator between each measuring point. The evaluation of the spontaneous contraction of the treated dermal equivalents (treated with (R)(+)-trans-N-(4-pyridyl)-4-(1-aminoethyl)cyclohexanecarboxamide dihydrochloride) and control dermal equivalents (without (R)(+)-trans-N-(4-pyridyl)-4-(1-aminoethyl)cyclohexanecarboxamide) is performed by measuring their surface area, at different times after the start of the spontaneous contraction. To do this, a digital image is acquired for each treated or untreated dermal equivalent using a camera (Sony DXC-107P CCD-Iris camera) and the area is then calculated on each image using an image analysis system (Zeiss Axiovision 3.0). […]

[1] = 0.1 μM, 4 hours after detaching from support
[2] = 0.1 μM, 8 hours after detaching from support
[3] = 0.1 μM, 24 hours after detaching from support
[4] = 1 μM, 4 hours after detaching from support
[5] = 1 μM, 8 hours after detaching from support
[6] = 1 μM, 24 hours after detaching from support

Row | Structure (SMILES) | reduction of percentage of contraction relative to the control [1] [%] | reduction of percentage of contraction relative to the control [2] [%] | reduction of percentage of contraction relative to the control [3] [%] | reduction of percentage of contraction relative to the control [4] [%] | reduction of percentage of contraction relative to the control [5] [%] | reduction of percentage of contraction relative to the control [6] [%] | reduction of percentage of contraction relative to the control (5 μM, 4 hours after detaching from support) [%] | reduction of percentage of contraction relative to the control (5 μM, 8 hours after detaching from support) [%] | reduction of percentage of contraction relative to the control (5 μM, 24 hours after detaching from support) [%] | inhibition of contraction of the dermal equivalent (in words) | effectiveness compared with Y-27632 at the same concentrations (same concentrations) | reversibility of the inhibition of contraction
1 | O=S(=O)(c1cccc2cnccc12)N1CCCNCC1 [1-(5-isoquinolinesulfonyl)homopiperazine] | 2.6 | 2.4 | 1.5 | 8 | 9.5 | 8.2 | 17 | 19.4 | 22.2 | dose-dependent inhibition of contraction | less effective than | 
2 | C[C@@H](N)[C@H]1CC[C@H](C(=O)Nc2ccncc2)CC1.Cl.Cl [(R)(+)-trans-N-(4-pyridyl)-4-(1-aminoethyl)cyclohexanecarboxamide dihydrochloride] | 6.1 | 6.4 | 7.2 | 20.6 | 24.4 | 29.3 |  |  |  | dose-dependent inhibition of contraction |  | reversible
